# Reference: US20250375417A1, “OREXIN RECEPTOR 2 (OX2R) AGONIST FOR USE IN NARCOLEPSY TYPE 1 (NT1)” (TAKEDA PHARMACEUTICAL COMPANY LIMITED, priority 2024, published 2025)
# Key:
# participants with NT1 [1] = experiment: Safety (TEAEs), LTE study interim analysis, NT1 participants; format: in vivo, human; conditions: for TEAE insomnia, frequency / TEAE micturition frequency, frequency / TEAE micturition urgency, frequency: LTE
# From the text: This was a phase 2/3 multicenter, dose-blind, long-term extension (LTE) study of Compound A. Participants from controlled studies conducted with Compound A, who had up to a 3-month dosing gap between their parent study and the screening period for this study, were eligible to participate in this study.
# Day 1 dosing for all participants occurred in-clinic with PK and safety assessments. Participants who were undergoing nocturnal polysomnography (nPSG) and an MWT during the final assessment of their Compound A parent study had the option of staying overnight in the clinic on Day −1 so they were already in the clinic for Day 1 the following day. Clinic visits after Week 4 were scheduled monthly up to Week 12, then approximately every 3 months until the end of Year 2 (Weeks 2, 4, 8, 12, 26, 38, 52, 64, 78, 90, and 104). […] Participants had either an in-clinic or home health follow up visit 4 weeks after their last dose. All other visits could be conducted through home health. Laboratory tests for safety were obtained biweekly up until Week 12, followed by monthly until Year 1, and then approximately every 3 months thereafter. Monthly phone calls were conducted to collect adverse event (AE) and concomitant medication information in Year 2.
# In this dose-blind study, all participants received Compound A. Participants entering the study with or without a dosing gap from a parent Compound A study remained on the same indication-specific dose of Compound A assigned to them in their parent study. Participants randomized to placebo or comparator in their parent study were randomized to one of the indication-specific dose regimens of Compound A available in this study. The investigator could request a change to either a higher or lower dose level of Compound A to be dispensed at Week 8 in the LTE treatment period. Subsequently, if the participant wished to return to their original LTE dose, this could be implemented at Week 12 in the LTE. No further dose adjustments were allowed for the duration of the study, except on a case by case basis as approved by the sponsor. The dose never exceeded the maximum designated dose level in the study. For a participant with NT1, if the next highest dose was the 7 mg total daily dose, the participant was randomized to 1 of those 2 dose regimens (i.e., 2 mg followed by 5 mg, or 7 mg once daily).
# Standard safety endpoints (e.g., TEAEs, physical examination findings, vital signs, 12-lead ECG measures, clinical laboratory results) for early clinical investigation were included. Further, because cardiovascular effects had been noted in nonclinical models with Compound A and OX2R agonists in general, and these effects are thought to be on-target effects, close monitoring of cardiovascular parameters, including time-matched BP measurements before and after dosing to detect any changes and potential tolerance in BP after the administration of repeat doses to participants with NT1 or NT2 were included.
# For participants with NT1: • Dose Regimen 1: 0.5 mg twice daily, approximately 3 hours apart; • Dose Regimen 2: 2 mg followed by 2 mg, approximately 3 hours apart; • Dose Regimen 3: 2 mg followed by 5 mg, approximately 3 hours apart; * • Dose Regimen 4: 7 mg once daily.*
# (§1) Participants completing either Example 1 or Example 2 with ≤3 months between parent study-end and LTE screening could enroll. Primary endpoint is the occurrence of treatment-emergent adverse events (TEAEs); secondary endpoints are change from baseline (parent study) in sleep onset latency on the Maintenance of Wakefulness Test (SOL-MWT), Epworth Sleepiness Scale (ESS) score, and weekly cataplexy rate (WCR). Participants with NT1 receive oral Compound A 0.5 mg twice 3 hours apart, 2 mg twice 3 hours apart, 2 mg then 5 mg 3 hours apart, or 7 mg once daily. Dose adjustments are allowed at specific timepoints (8 weeks and 12 weeks of the study and at other weeks on a sponsor-approved case-by-case basis). TEAEs are summarized under the dose at TEAE onset.
# participants with NT1 [2] = experiment: Efficacy (SOL-MWT, ESS, WCR), LTE study interim analysis, NT1 participants; format: in vivo, human; conditions: all Compound A doses, up to 6 months (FIG. 31)
# Description: An nPSG and MWT were conducted on Day 181 and 182, respectively. Cognitive testing were conducted at Week 26 (6 months). ESS and NSS-CT were collected monthly starting at Week 4 and then approximately every 3 months after Week 12. There were additional ESS measurements at Week 2 and in the first week after drug discontinuation. PGI-I and CGI-I were collected approximately every 3 months starting at Week 12. Other patient-reported outcome measures were administered approximately every 6 months up until Year 1.
# Participants with NT1 also completed the Cataplexy e-diary daily over 2-week periods to capture the weekly cataplexy rate before the next visit in-clinic. The Cataplexy e-diary was completed at approximately 3-month intervals during Year 1 and at 6-month intervals during Year 2.
# as §1, with “Dose adjustments are allowed at specific timepoints (8 weeks and 12 weeks of the study and at other weeks on a sponsor-approved case-by-case basis). TEAEs are summarized under the dose at TEAE onset.” left out
# [3] = 0.5 mg/0.5 mg (dose at TEAE onset)
smiles,measurement,setting,value
"CCS(=O)(=O)N[C@@H]1[C@H](Cc2cccc(-c3cc(F)cc(F)c3)c2F)N(C(=O)C(C)(C)O)CC1(F)F [Compound A, N-{(2S,3R)-4,4-difluoro-1-(2-hydroxy-2-methylpropanoyl)-2-[(2,3′,5′-trifluoro[1,1′-biphenyl]-3-yl)methyl]pyrrolidin-3-yl}ethanesulfonamide]",Hepatotoxicity or visual disturbances,participants with NT1 [1]; LTE interim,No cases of hepatotoxicity or visual disturbances were reported
same,"Participants with severe drug-related TEAEs (insomnia, cataplexy)",participants with NT1 [1]; LTE interim (N=104),Two
same,Participants discontinued due to TEAEs,"participants with NT1 [1]; LTE interim (N=104), 3 unrelated to Compound A",6
same,Participants who experienced a TEAE,"participants with NT1 [1]; LTE interim analysis (N=104), all doses",54.8%
same,"TEAE insomnia, frequency",participants with NT1 [1]; [3],7.1%
same,"TEAE micturition frequency, frequency",participants with NT1 [1]; [3],10.7%
same,"TEAE micturition urgency, frequency",participants with NT1 [1]; [3],10.7%
same,"TEAE insomnia, frequency",participants with NT1 [1]; 2 mg/2 mg (dose at TEAE onset),10.9%
same,"TEAE micturition frequency, frequency",participants with NT1 [1]; 2 mg/2 mg (dose at TEAE onset),4.3%
same,"TEAE micturition urgency, frequency",participants with NT1 [1]; 2 mg/2 mg (dose at TEAE onset),2.2%
same,"TEAE insomnia, frequency",participants with NT1 [1]; 2 mg/5 mg (dose at TEAE onset),10.8%
same,"TEAE micturition frequency, frequency",participants with NT1 [1]; 2 mg/5 mg (dose at TEAE onset),8.1%
same,"TEAE micturition urgency, frequency",participants with NT1 [1]; 2 mg/5 mg (dose at TEAE onset),2.7%
same,"TEAE insomnia, frequency",participants with NT1 [1]; 7 mg (dose at TEAE onset),7.9%
same,"TEAE micturition frequency, frequency",participants with NT1 [1]; 7 mg (dose at TEAE onset),7.9%
same,"TEAE micturition urgency, frequency",participants with NT1 [1]; 7 mg (dose at TEAE onset),10.5%
same,"Efficacy on SOL-MWT, ESS and WCR over time",participants with NT1 [2],maintenance of efficacy
